These results are taken from patent US20240246913A1, “2-CARBOXYL-INDOLE INHIBITORS OF METALLO-BETA-LACTAMASES” (Oxford University Innovation Limited, priority 2021, published 2024).

Where only a bound is given, the exact number is not on record here.

The target in one data set is VIM-2 (Escherichia coli, UniProt Q5U7L7). Put plainly: MBL inhibition, FC-5 fluorescence assay, VIM-2. It counts as biochemical. To be noted: FC-5 cephalosporin substrate, ranges of obtained pIC50, read-out: pIC50 VIM-2 (converted). How it is done:
(§1) Inhibitors were tested using a panel of the clinically relevant B1 MBLs (NDM-1, VIM-1, -2 and IMP-1). Activities were assayed by monitoring the release of a fluorophore following the enzymatic breakdown of the cephalosporin FC-5 (https://pubs.acs.org/doi/abs/10.1021/jm400769b). FC-5 assays were conducted in clear bottomed 384 black well microplates (Greiner); the initial rate of reaction was assessed by monitoring the fluorescence intensity (λex=380 nm and λem=460 nm) using a Pherstar FS (BMG LabTech) plate reader. Initial rates of reaction were determined and dose-response analyses conducted in GraphPad Prism. Dose-response curves were fitted using the log(inhibitor) vs normalized response—variable slope model of GraphPad Prism 12. Each concentration point for routine screening was conducted with 4 intra-plate replicates.

A short description of data set [1]: Plasma protein binding, equilibrium dialysis, human plasma. The format is in vitro ADME. To be noted: pH 7.4, equilibrium dialysis (RED) 4 hours at 37° C., read-out: Plasma protein binding, fu, Human. On the procedure: The fraction of unbound compound (fu) in plasma from human or other animal species was determined by equilibrium dialysis at 37° C. for 4 hours using the Rapid Equilibrium Dialysis (RED) device (ThermoFisher Scientific). The test compound at a concentration of 10 μM was added to plasma and dialyzed against isotonic phosphate buffer (67 mM, pH 7.4) over 4 hours at 37° C. After dialysis, compound concentrations in buffer and plasma were quantified by LC-MS/MS. In parallel the stability of the compound in plasma was determined by incubating drug-spiked plasma (10 μM) at 37° C. for 4 hours, meanwhile the control plasma sample was kept in the freezer. The concentration of the compound in both samples was quantified by LC-MS/MS (Waters Corp, Milford, MA, USA).

A further data set addresses NDM-1 (Klebsiella pneumoniae, UniProt C7C422). Put plainly: MBL inhibition, FC-5 fluorescence assay, NDM-1. It counts as biochemical. To be noted: FC-5 cephalosporin substrate, fluorescence; ranges of obtained pIC50; read-out: pIC50 NDM-1 (converted). How it is done: as §1
The target of another data set is IMP-1 (Serratia marcescens, UniProt P52699). Put plainly: MBL inhibition, FC-5 fluorescence assay, IMP-1. The format is biochemical. To be noted: FC-5 cephalosporin substrate, fluorescence; ranges of obtained pIC50; read-out: pIC50 IMP-1 (converted). On the procedure: as §1
Sequence of IMP-1 (P52699 19-246, looked up, species assumed): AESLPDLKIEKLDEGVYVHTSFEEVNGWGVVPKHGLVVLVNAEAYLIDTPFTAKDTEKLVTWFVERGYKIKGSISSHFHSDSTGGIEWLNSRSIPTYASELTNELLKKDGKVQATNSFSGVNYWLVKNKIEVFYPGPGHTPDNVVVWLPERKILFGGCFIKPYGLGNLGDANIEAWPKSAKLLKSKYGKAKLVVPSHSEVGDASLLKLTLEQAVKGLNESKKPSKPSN
The next data set addresses VIM-1 (Pseudomonas aeruginosa, UniProt A0A0F7KYQ8). The data set can be described thus: MBL inhibition, FC-5 fluorescence assay, VIM-1. The format is biochemical. To be noted: FC-5 cephalosporin substrate, ranges of obtained pIC50, read-out: pIC50 VIM-1 (converted). On the procedure: as §1
A further data set relates to Escherichia coli NDM-7. Put plainly: Antibiotic susceptibility testing (MIC), EC NDM-7. It counts as cell-based. To be noted: agar or broth dilution (CLSI/EUCAST). On the procedure:
(§2) Antibiotic susceptibility testing was performed using the agar or broth dilution method, in line with the Clinical and Laboratory Standards Institute (CLSI) and European Committee on Antimicrobial Susceptibility Testing (EUCAST) requirements.

A further data set concerns Escherichia coli NDM-1. The data set can be described thus: Antibiotic susceptibility testing (MIC), EC NDM-1. To be noted: agar or broth dilution (CLSI/EUCAST). It counts as cell-based. How it is done: as §2
Data set [2] deals with Acinetobacter baumannii NDM-1. The data set can be described thus: Antibiotic susceptibility testing (MIC), AB NDM-1. To be noted: agar or broth dilution (CLSI/EUCAST). The format is cell-based. On the procedure: as §2

Sequence of NDM-1 (C7C422 29-270, looked up, species assumed): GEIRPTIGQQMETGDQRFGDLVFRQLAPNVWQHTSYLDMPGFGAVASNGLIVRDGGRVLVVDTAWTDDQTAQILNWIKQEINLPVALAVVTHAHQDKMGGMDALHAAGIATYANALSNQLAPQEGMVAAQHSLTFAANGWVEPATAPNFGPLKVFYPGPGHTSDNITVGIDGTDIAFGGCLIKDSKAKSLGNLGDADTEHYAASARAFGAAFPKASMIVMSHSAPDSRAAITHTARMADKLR

For the molecule `CC(c1cccc2c(-c3ccc(CS(C)(=O)=O)c(F)c3)c(C(=O)O)[nH]c12)n1cc(CNS(N)(=O)=O)nn1` (stereo not shown) [IC-8, 3-(3-Fluoro-4-((methylsulfonyl)methyl)phenyl)-7-(1-(4-((sulfamoylamino)methyl)-1H-1,2,3-triazol-1-yl)ethyl)-1H-indole-2-carboxylic acid], the IC50 is 1 to 10 nM at VIM-2, more than 10 nM on NDM-1, more than 10 nM at IMP-1 and more than 10 nM at VIM-1. Moreover, the fraction unbound at 4 h, 10 μM in data set [1] was 0.05 to 0.25.

As for `COc1cc(-c2c(C(=O)O)[nH]c3c([C@H](C)N4CC5(CC(CN)C5)OC4=O)cccc23)ccn1` (stereo partly drawn) [IC-20, 7-((1S)-1-(2-(aminomethyl)-6-oxo-5-oxa-7-azaspiro[3.4]octan-7-yl)ethyl)-3-(2-methoxypyridin-4-yl)-1H-indole-2-carboxylic acid], the IC50 at VIM-2 is 0.1 to 1 nM; at NDM-1, 0.1 to 1 nM; on IMP-1, more than 10 nM; on VIM-1, 1 to 10 nM. For the same molecule, in the data set with Escherichia coli NDM-7, the “MIC values EC NDM-7” value is given as “A (A = MIC values ≤ 1)”. Besides, the “MIC values EC NDM-1” value in the data set on Escherichia coli NDM-1 was “A (A = MIC values ≤ 1)”. Moreover, the “MIC values AB NDM-1” value in data set [2] was “B (B MIC values 2 ÷ 8)”.

`COc1cc(-c2c(C(=O)O)[nH]c3c([C@H](C)N4C[C@]5(C[C@@H](CN)C5)OC4=O)cccc23)cnc1O` [IC-25, 7-((S)-1-((2S,4r)-2-(aminomethyl)-6-oxo-5-oxa-7-azaspiro[3.4]octan-7-yl)ethyl)-3-(6-hydroxy-5-methoxypyridin-3-yl)-1H-indole-2-carboxylic acid]: the IC50 at VIM-2 is 0.1 to 1 nM; on NDM-1 it was more than 10 nM; at IMP-1, more than 10 nM; at VIM-1, more than 10 nM. Also, the “MIC values EC NDM-7” value against Escherichia coli NDM-7 was “B (B MIC values 2 ÷ 8)”. Moreover, in the data set on Escherichia coli NDM-1, the “MIC values EC NDM-1” value is “C (C = MIC values > 8)”. Moreover, the fraction unbound at 4 h, 10 μM in data set [1] was more than 0.25. In addition, the “MIC values AB NDM-1” value in data set [2] was “C (C = MIC values > 8)”.

Take `C[C@@H](c1cccc2c(-c3c[nH]c(=O)c(F)c3)c(C(=O)O)[nH]c12)N1C[C@]2(C[C@@H](CN)C2)OC1=O` [IC-26, 7-((1S)-1-(2-(aminomethyl)-6-oxo-5-oxa-7-azaspiro[3.4]octan-7-yl)ethyl)-3-(5-fluoro-6-oxo-1,6-dihydropyridin-3-yl)-1H-indole-2-carboxylic acid]: the IC50 on VIM-2 is 0.1 to 1 nM; on NDM-1, 1 to 10 nM; on IMP-1, more than 10 nM; on VIM-1, more than 10 nM. In addition, the “MIC values EC NDM-7” value in the data set with Escherichia coli NDM-7 was “A (A = MIC values ≤ 1)”. Further, in the data set with Escherichia coli NDM-1, the “MIC values EC NDM-1” value is recorded as “B (B MIC values 2 ÷ 8)”. In addition, the fraction unbound at 4 h, 10 μM in data set [1] lay within 0.05 to 0.25. Further, in data set [2], the “MIC values AB NDM-1” value was “C (C = MIC values > 8)”.

`C[C@@H](c1cccc2c(-c3ccc(CN4CCOCC4)nc3)c(C(=O)O)[nH]c12)n1cc(CN2CC(N)C2)oc1=O` [IC-52, 7-[(1S)-1-{5-[(3-aminoazetidin-1-yl)methyl]-2-oxo-2,3-dihydro-1,3-oxazol-3-yl}ethyl]-3-{6-[(morpholin-4-yl)methyl]pyridin-3-yl}-1H-indole-2-carboxylic acid]: the IC50 at VIM-2 was 1 to 10 nM; on NDM-1 it was less than 0.1 nM; at IMP-1, more than 10 nM; at VIM-1, more than 10 nM. For the same molecule, the “MIC values EC NDM-7” value against Escherichia coli NDM-7 is given as “B (B MIC values 2 ÷ 8)”. In the data set on Escherichia coli NDM-1, the “MIC values EC NDM-1” value is “B (B MIC values 2 ÷ 8)”. Further, the “MIC values AB NDM-1” value in data set [2] is “C (C = MIC values > 8)”.

As to `C[C@@H](c1cccc2c(-c3ccc(CS(C)(=N)=O)c(F)c3)c(C(=O)O)[nH]c12)n1cc(CN2CC(N)C2)oc1=O` (stereo partly drawn) [IC-53, 7-[(1S)-1-{5-[(3-aminoazetidin-1-yl)methyl]-2-oxo-2,3-dihydro-1,3-oxazol-3-yl}ethyl]-3-(3-fluoro-4-{[imino(methyl)oxo-λ^6-sulfanyl]methyl}phenyl)-1H-indole-2-carboxylic acid], the IC50 was 1 to 10 nM on VIM-2, less than 0.1 nM at NDM-1, more than 10 nM at IMP-1 and 1 to 10 nM on VIM-1. Moreover, the “MIC values EC NDM-7” value against Escherichia coli NDM-7 is given as “A (A = MIC values ≤ 1)”. Also, the “MIC values EC NDM-1” value with Escherichia coli NDM-1 was “A (A = MIC values ≤ 1)”. The “MIC values AB NDM-1” value in data set [2] is given as “B (B MIC values 2 ÷ 8)”.

For `C[C@@H](c1cccc2c(-c3ccc(CS(C)(=O)=O)c(F)c3)c(C(=O)O)[nH]c12)N1CC2(CNC2)OC1=O` [IC-65, (S)-3-(3-fluoro-4-((methylsulfonyl)methyl)phenyl)-7-(1-(6-oxo-5-oxa-2,7-diazaspiro[3.4]octan-7-yl)ethyl)-1H-indole-2-carboxylic acid], the IC50 on VIM-2 is 0.1 to 1 nM; at NDM-1 it was 0.1 to 1 nM; on IMP-1 it was more than 10 nM; at VIM-1 it was 1 to 10 nM. The “MIC values EC NDM-7” value in the data set with Escherichia coli NDM-7 is given as “A (A = MIC values ≤ 1)”. In the data set on Escherichia coli NDM-1, the “MIC values EC NDM-1” value is on record as “A (A = MIC values ≤ 1)”. Moreover, the “MIC values AB NDM-1” value in data set [2] is recorded as “B (B MIC values 2 ÷ 8)”.

With `C/C(=C\C(=O)NCCc1c[nH]cn1)c1cccc2c(-c3ccc(CS(C)(=O)=O)c(F)c3)c(C(=O)O)[nH]c12` [IC-103, 3-[3-Fluoro-4-(methanesulfonylmethyl)phenyl]-7-[(1E)-1-{[2-(1H-imidazol-4-yl)ethyl]carbamoyl}prop-1-en-2-yl]-1H-indole-2-carboxylic acid], the IC50 at VIM-2, at NDM-1, at IMP-1 and on VIM-1 was more than 10 nM each time. Moreover, in the data set on Escherichia coli NDM-7, the “MIC values EC NDM-7” value was “C (C = MIC values > 8)”. The “MIC values EC NDM-1” value with Escherichia coli NDM-1 was “C (C = MIC values > 8)”. The “MIC values AB NDM-1” value in data set [2] is reported as “C (C = MIC values > 8)”.

`C/C(=C\C(=O)N1CCOCC1)c1cccc2c(-c3ccc(CS(C)(=O)=O)c(F)c3)c(C(=O)O)[nH]c12` [IC-105, 3-[3-Fluoro-4-(methanesulfonylmethyl)phenyl]-7-[(2E)-4-(morpholin-4-yl)-4-oxobut-2-en-2-yl]-1H-indole-2-carboxylic acid]: the IC50 on VIM-2, on NDM-1, on IMP-1 and on VIM-1 was more than 10 nM in each case. Also, in the data set with Escherichia coli NDM-7, the “MIC values EC NDM-7” value is on record as “C (C = MIC values > 8)”. Further, in the data set on Escherichia coli NDM-1, the “MIC values EC NDM-1” value was “C (C = MIC values > 8)”. The “MIC values AB NDM-1” value in data set [2] is “C (C = MIC values > 8)”.

`C=C(CC(=O)NCCc1c[nH]cn1)c1cccc2c(-c3ccc(CS(C)(=O)=O)c(F)c3)c(C(=O)O)[nH]c12` [IC-106, 7-(4-((2-(1H-Imidazol-4(5)-yl)ethyl)amino)-4-oxobut-1-en-2-yl)-3-(3-fluoro-4-((methylsulfonyl)-methyl)phenyl)-1H-indole-2-carboxylic acid]: the IC50 at VIM-2, on NDM-1, on IMP-1 and on VIM-1 was more than 10 nM in each case. Also, the “MIC values EC NDM-7” value in the data set with Escherichia coli NDM-7 was “C (C = MIC values > 8)”. In the data set on Escherichia coli NDM-1, the “MIC values EC NDM-1” value is on record as “C (C = MIC values > 8)”. In data set [2], the “MIC values AB NDM-1” value is “C (C = MIC values > 8)”.
